The assay deals with T1, Human complement C1s enzyme (Homo sapiens, UniProt P09871).
T1 construct: purified from human serum, Complement Technology, Inc; purchased Complement Technology, Inc; host or cells: human serum
T1 sequence (P09871 438-688 limits assumed): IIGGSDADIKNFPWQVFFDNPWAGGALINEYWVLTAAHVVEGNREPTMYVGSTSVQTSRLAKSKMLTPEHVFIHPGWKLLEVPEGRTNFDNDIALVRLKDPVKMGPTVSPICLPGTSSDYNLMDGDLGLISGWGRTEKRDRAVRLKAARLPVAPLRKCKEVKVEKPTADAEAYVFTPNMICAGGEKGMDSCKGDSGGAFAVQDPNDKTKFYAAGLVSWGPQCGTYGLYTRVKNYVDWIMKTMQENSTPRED
T1 sequence (P09871 16-437 partner limits assumed): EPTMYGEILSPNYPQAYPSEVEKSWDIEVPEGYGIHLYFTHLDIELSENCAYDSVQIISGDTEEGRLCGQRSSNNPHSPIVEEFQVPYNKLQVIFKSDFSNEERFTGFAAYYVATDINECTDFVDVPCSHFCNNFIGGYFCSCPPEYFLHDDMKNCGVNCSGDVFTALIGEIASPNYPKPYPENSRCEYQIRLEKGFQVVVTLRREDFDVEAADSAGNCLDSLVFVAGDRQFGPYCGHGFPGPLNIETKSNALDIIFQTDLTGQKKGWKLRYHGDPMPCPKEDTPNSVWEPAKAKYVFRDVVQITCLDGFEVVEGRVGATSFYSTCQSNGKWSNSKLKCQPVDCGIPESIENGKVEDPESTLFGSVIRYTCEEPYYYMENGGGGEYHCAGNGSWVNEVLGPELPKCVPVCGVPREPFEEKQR
Nature of the assay: Human C1s Enzyme Assay. It counts as biochemical. Particulars: human C1s 1.16 nM, 5 min preincubation, substrate Z-L-Lys-SBzl 100 μM, A405; read-out: C1s Protease Activity. In a few lines:
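C1s purified from human serum (1.16 nM final) was preincubated with compound for 5 min at room temperature in 50 mM Tris, 1 M NaCl, pH 7.5. Z-L-Lys-SBzl and DTNB were then added at 100 μM each, and A405 was followed for 30 min. IC50 came from nonlinear regression of reaction rates.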
As for `N=C(N)c1csc(CNC(=O)[C@@H]2CC3(CN2C(=O)CNC(=O)CCCOc2ccnc(F)c2)OCCO3)c1` [Compound 206, (S)-N-((4-carbamimidoylthiophen-2-yl)methyl)-7-((4-((2-fluoropyridin-4-yl)oxy)butanoyl)glycyl)-1,4-dioxa-7-azaspiro[4.4]nonane-8-carboxamide], the IC50 is under 100 nM.

With `N=C(N)c1ccc(CNC(=O)[C@@H]2CC3(CN2C(=O)CNC(=O)CCCOc2ccccc2)OCCO3)s1` [Compound 83, (S)-N-((5-carbamimidoylthiophen-2-yl)methyl)-7-((4-phenoxybutanoyl)glycyl)-1,4-dioxa-7-azaspiro[4.4]nonane-8-carboxamide], the IC50 was under 100 nM.

`N=C(N)c1csc(CNC(=O)[C@@H]2C[C@]3(CN2C(=O)CNC(=O)c2ccc(Oc4ccccc4)cc2)CC3(F)F)c1` [Compound 22, (3R,6S)-N-((4-carbamimidoylthiophen-2-yl)methyl)-1,1-difluoro-5-((4-phenoxy-benzoyl)glycyl)-5-azaspiro[2.4]heptane-6-carboxamide]: the IC50 was under 100 nM.

As for `C[C@@H](NC(=O)[C@@H]1C[C@@H](S(C)(=O)=O)CN1C(=O)CNC(=O)CCCOc1ccc(F)cc1)c1cc(C(=N)N)cs1` [Compound 107, (2S,4R)-N-((R)-1-(4-carbamimidoylthiophen-2-yl)ethyl)-1-((4-(4-fluorophenoxy)-butanoyl)glycyl)-4-(methylsulfonyl)pyrrolidine-2-carboxamide], the IC50 is under 100 nM.

With `C[C@@]12C[C@@H]1N(C(=O)CNC(=O)c1ccc(Oc3ccccc3)cc1)[C@H](C(=O)NCc1ccc(N)nc1)C2` [Compound 5], the IC50 is 100 to 1000 nM.

With `C[C@@]12C[C@@H]1N(C(=O)CNC(=O)CCCOc1ccc(S(C)(=N)=O)cc1)[C@H](C(=O)NCc1cc(C(=N)N)cs1)C2` (stereo partly drawn) [Compound 76, (1S,3S,5S)-N-((4-carbamimidoylthiophen-2-yl)methyl)-5-methyl-2-((4-(4-(S-methyl-sulfonimidoyl)phenoxy)butanoyl)glycyl)-2-azabicyclo[3.1.0]hexane-3-carboxamide], the IC50 was 100 to 1000 nM.

For the compound `COC[C@@]1(F)C[C@@H](C(=O)NCc2cc(C(=N)N)cs2)N(C(=O)CNC(=O)CCCOc2ccccc2)C1` [Compound 72, (2S,4R)-N-((4-carbamimidoylthiophen-2-yl)methyl)-4-fluoro-4-(methoxymethyl)-1-((4-phenoxybutanoyl)glycyl)pyrrolidine-2-carboxamide], the IC50 was under 100 nM.

Take `N=C(N)c1csc(CNC(=O)[C@@H]2CC(c3nccs3)CN2C(=O)CNC(=O)c2ccc(Oc3ccccc3)cc2)c1` (stereo in doubt) [Compound 209, (2S,4R)-N-((4-carbamimidoylthiophen-2-yl)methyl)-1-((4-phenoxybenzoyl)glycyl)-4-(thiazol-2-yl)pyrrolidine-2-carboxamide]: the IC50 was under 100 nM.

With `C[C@@H](NC(=O)[C@@H]1C[C@]2(COCC(=O)O)C[C@@H]2N1C(=O)CNC(=O)CCCOc1ccccc1)c1cc(C(=N)N)cs1` [Compound 148, 2-(((1S,3S,5R)-3-(((R)-1-(4-carbamimidoylthiophen-2-yl)ethyl)carbamoyl)-2-((4-phenoxybutanoyl)glycyl)-2-azabicyclo[3.1.0]hexan-5-yl)methoxy)acetic acid], the IC50 is under 100 nM.

As to `N=C(N)c1csc(CNC(=O)C2CC3(CCC3)CN2C(=O)CNC(=O)CCCOc2ccccc2)c1` (centres unmarked) [Compound 261, N-((4-carbamimidoylthiophen-2-yl)methyl)-6-((4-phenoxybutanoyl)glycyl)-6-azaspiro[3.4]octane-7-carboxamide], the IC50 was under 100 nM.

In the case of `CC(=O)NCCOC[C@@]12C[C@@H]1N(C(=O)CNC(=O)c1ccc(Oc3ccccc3)cc1)[C@H](C(=O)NCc1cc(C(=N)N)cs1)C2` [Compound 74, (1S,3S,5R)-5-((2-acetamidoethoxy)methyl)-N-((4-carbamimidoylthiophen-2-yl)methyl)-2-((4-phenoxybenzoyl)glycyl)-2-azabicyclo[3.1.0]hexane-3-carboxamide], the IC50 was under 100 nM.

For the compound `N=C(N)c1csc(CNC(=O)[C@@H]2CC(OC(F)(F)F)CN2C(=O)CNC(=O)c2ccc(Oc3ccccc3)cc2)c1` (stereo in doubt) [Compound 247, (2S,4S)-N-((4-carbamimidoylthiophen-2-yl)methyl)-1-((4-phenoxybenzoyl)glycyl)-4-(trifluoromethoxy)pyrrolidine-2-carboxamide], the IC50 is under 100 nM.

For the compound `N=C(N)c1csc([C@H](NC(=O)[C@@H]2CC3(CN2C(=O)CNC(=O)CCCOc2ccccc2)OCCO3)C2CC2)c1` [Compound 177, (S)-N-((R)-(4-carbamimidoylthiophen-2-yl)(cyclopropyl)methyl)-7-((4-phenoxybutanoyl)glycyl)-1,4-dioxa-7-azaspiro[4.4]nonane-8-carboxamide], the IC50 was over 1000 nM.

Turning to `CC(C)C[C@@H](NC(=O)[C@@H]1C[C@@H](OC(F)F)CN1C(=O)CNC(=O)c1ccc(Oc2ccccc2)cc1)c1cc(C(=N)N)cs1` [Compound 191, (2S,4R)-N-((R)-1-(4-carbamimidoylthiophen-2-yl)-3-methylbutyl)-4-(difluoromethoxy)-1-((4-phenoxybenzoyl)glycyl)pyrrolidine-2-carboxamide], the IC50 is over 1000 nM.

Regarding `C[C@@]12C[C@@H]1N(C(=O)CNC(=O)c1ccc(Oc3ccccc3)cc1)[C@H](C(=O)NCCc1cc(C(=N)N)cs1)C2` [Compound 52, (1S,3S,5S)-N-(2-(4-carbamimidoylthiophen-2-yl)ethyl)-5-methyl-2-((4-phenoxy-benzoyl)glycyl)-2-azabicyclo[3.1.0]hexane-3-carboxamide], the IC50 is under 100 nM.

Take `N=C(N)c1ccc(CNC(=O)[C@@H]2CC3(CN2C(=O)CNC(=O)c2ccc(Oc4ccccc4)cc2)OCCO3)cn1` [Compound 71, (S)-N-((6-carbamimidoylpyridin-3-yl)methyl)-7-((4-phenoxybenzoyl)glycyl)-1,4-dioxa-7-azaspiro[4.4]nonane-8-carboxamide]: the IC50 is under 100 nM.

`C[C@@]12C[C@@H]1N(C(=O)CNC(=O)CCCOc1ccccc1)[C@H](C(=O)NCc1cc(C(=N)N)c(C(F)(F)F)s1)C2` [Compound 251, (1S,3S,5S)-N-((4-carbamimidoyl-5-(trifluoromethyl)thiophen-2-yl)methyl)-5-methyl-2-((4-phenoxybutanoyl)glycyl)-2-azabicyclo[3.1.0]hexane-3-carboxamide]: the IC50 is over 1000 nM.

Consider `C[C@@]12C[C@@H]1N(C(=O)CNC(=O)c1ccc(Oc3ccccc3)cc1)[C@H](C(=O)NCc1cc(C(=N)N)c(F)s1)C2` [Compound 239, (1S,3S,5S)-N-((4-carbamimidoyl-5-fluorothiophen-2-yl)methyl)-5-methyl-2-((4-phenoxybenzoyl)glycyl)-2-azabicyclo[3.1.0]hexane-3-carboxamide], for which the IC50 was under 100 nM.

Turning to `N=C(N)c1csc(CNC(=O)[C@@H]2C[C@@H](OCC3CC3)CN2C(=O)CNC(=O)c2ccc(Oc3ccccc3)cc2)c1` [Compound 50, (2S,4R)-N-((4-carbamimidoylthiophen-2-yl)methyl)-4-(cyclopropylmethoxy)-1-((4-phenoxybenzoyl)glycyl)pyrrolidine-2-carboxamide], the IC50 is under 100 nM.

In the case of `COCCOCCCC(=O)NCC(=O)N1[C@H]2C[C@@]2(C)C[C@H]1C(=O)NCc1cc(C(=N)N)cs1` [Compound 136, (1S,3S,5S)-N-((4-carbamimidoylthiophen-2-yl)methyl)-2-((4-(2-methoxyethoxy)butanoyl)glycyl)-5-methyl-2-azabicyclo[3.1.0]hexane-3-carboxamide], the IC50 was in the range of 100 to 1000 nM.

As for `C[C@@H](NC(=O)[C@@H]1C[C@@H](OC(F)F)CN1C(=O)CNC(=O)CCCOc1ccccc1)c1cc(C(=N)N)cs1` [Compound 123, (2S,4R)-N-((R)-1-(4-carbamimidoylthiophen-2-yl)ethyl)-4-(difluoromethoxy)-1-((4-phenoxybutanoyl)glycyl)pyrrolidine-2-carboxamide], the IC50 is under 100 nM.

As for `C[C@@H](NC(=O)[C@@H]1CC2(CN1C(=O)CNC(=O)c1ccccc1)OCCO2)c1cc(C(=N)N)cs1` [Compound 264, (S)-7-(benzoylglycyl)-N-((R)-1-(4-carbamimidoylthiophen-2-yl)ethyl)-1,4-dioxa-7-azaspiro[4.4]nonane-8-carboxamide], the IC50 was under 100 nM.

For `C[C@@]12C[C@@H]1N(C(=O)CNC(=O)c1ccc(Oc3ccccc3)nc1)[C@H](C(=O)NCc1cc(C(=N)N)cs1)C2` [Compound 143, (1S,3S,5S)-N-((4-carbamimidoylthiophen-2-yl)methyl)-5-methyl-2-((6-phenoxynicotinoyl)glycyl)-2-azabicyclo[3.1.0]hexane-3-carboxamide], the IC50 was under 100 nM.

(Values after US20250171423A1, “PHARMACEUTICAL COMPOUNDS FOR THE TREATMENT OF COMPLEMENT MEDIATED DISORDERS” (Achillion Pharmaceuticals, Inc., priority 2020, published 2025).)
